# Measured values as given in US10364226B2, “Pyridazinone compounds and uses thereof” (priority 2013, dated 2019).
# Experiments:
# EN PA = EN PA (Influenza A virus, UniProt P15659); assay: EN PA FRET Inhibition Assay; type: biochemical; conditions: read-out: Potency
# [1] = system: Influenza strain A549 A/WSN/33 (H1N1); assay: Influenza Antiviral Assay; type: cell-based, Influenza A virus; conditions: Influenza A virus, A549, 20 h, neuraminidase fluorescence readout, read-out: % Inhibition
Structure (SMILES),IC50 (EN PA) [nM],EC50 [1] [µM]
NC(=O)c1nn(CC2(n3cc(Cl)c4cccnc43)CCCC2)cc(O)c1=O [Compound 758],< 100,< 20
CNC(=O)c1nn(CC2(n3cc(C(C)=O)c4cc(C)cnc43)CCCC2)cc(O)c1=O [Compound 894],< 100,< 20
CNC(=O)c1nn(CC2(n3ccc4cc(C5CC5)cnc43)CCCC2)cc(O)c1=O [Compound 754],< 100,< 20
COc1cccc(CNC(=O)c2nn(CC3(c4cccc(C(F)(F)F)c4)CCCC3)cc(O)c2=O)c1 [Compound 624],100 to 1000,< 20
CC(C)c1cccc(C2(Cn3cc(O)c(=O)c(C(=O)O)n3)CCCC2)c1 [Compound 723],< 100,20 to 100
CNC(=O)c1nn(CC2(c3ccc4ccncc4c3)CCCC2)cc(O)c1=O [Compound 848],< 100,> 100
CNC(=O)c1nn(CCN(c2ccccc2)c2ccccc2)cc(O)c1=O [Compound 834],100 to 1000,> 100
CNC(=O)c1nn(CC2(c3cccc(C(C)C)c3)CCCC2)cc(O)c1=O [Compound 665],< 100,< 20
CCCC(Cn1cc(O)c(=O)c(C(=O)NC)n1)n1cc(C)c2cccnc21 (stereo not drawn) [Compound 791],100 to 1000,< 20
CC1(C)CCN(c2ccccc2-n2cc(O)c(=O)c(C(=O)O)n2)CC1 [Compound 206],100 to 1000,20 to 100
O=C(NCC1CC1)c1nn(CC2(c3ccccc3)CCCC2)cc(O)c1=O [Compound 677],< 100,< 20
O=C(O)c1nn(CCc2ccccc2)cc(O)c1=O [Compound 401],100 to 1000,> 100
CCCNC(=O)c1nn(CC2(n3cc(C)c4cccnc43)CCCC2)cc(O)c1=O [Compound 756],< 100,< 20
CNC(=O)c1nn(CC2(c3cccc(C(F)(F)F)c3)CCCC2)cc(O)c1=O [Compound 511],100 to 1000,< 20
COc1ccc(CNC(=O)c2nn(CC3(c4cccc(C(F)(F)F)c4)CCCC3)cc(O)c2=O)cc1 [Compound 525],100 to 1000,< 20
CNC(=O)c1nn(CC2(n3ccc4ccc(C)nc43)CCCC2)cc(O)c1=O [Compound 853],< 100,< 20
Cn1cc(CNC(=O)c2nn(CC3(c4cccc(C(F)(F)F)c4)CCCC3)cc(O)c2=O)cn1 [Compound 646],< 100,< 20
CNC(=O)c1nn(CC2(c3cn(C)c4ccccc34)CCCC2)cc(O)c1=O [Compound 830],100 to 1000,> 100
CNC(=O)c1nn(CC2(n3cc(C)c4cccnc43)CCCC2)cc(OC(=O)C(C)C)c1=O [Compound 678],< 100,< 20
O=C(NCc1ccccc1)c1nn(CC2(c3cccc(C(F)(F)F)c3)CCCC2)cc(O)c1=O [Compound 509],100 to 1000,< 20
O=C(O)c1nn(-c2ccccc2OC(F)(F)F)cc(O)c1=O [Compound 21],< 100,> 100
CNC(=O)c1nn(CC2(n3nc(C)c4ccccc43)CCCC2)cc(O)c1=O [Compound 824],100 to 1000,< 20
O=C(O)c1nn(-c2ccc(F)cc2)cc(O)c1=O [Compound 4],100 to 1000,> 100
CNC(=O)c1nn(CC2(c3cccc(C(F)(F)F)c3)CC2)cc(O)c1=O [Compound 621],100 to 1000,< 20
O=C(O)c1nn(Cc2ccccc2-c2ccccc2)cc(O)c1=O [Compound 403],< 100,> 100

Structure (SMILES),IC50 (EN PA) [nM],EC50 [1] [µM]
CNC(=O)c1nn(CC2(n3cc(C)c4cc(Cl)ccc43)CCCC2)cc(O)c1=O [Compound 898],< 100,< 20
CNC(=O)c1nn(CC2(c3ccc(Cl)c(Cl)c3)CCCC2)cc(O)c1=O [Compound 752],< 100,< 20
CNC(=O)c1nn(CC(c2ccccc2)C2CCCCC2)cc(O)c1=O (stereo not drawn) [Compound 659],100 to 1000,> 100
CNC(=O)c1nn(-c2ccccc2S(=O)(=O)c2cccc(Cl)c2)cc(O)c1=O [Compound 644],100 to 1000,> 100
O=C(NC1CC1)c1nn(CC2(c3cccc(C(F)(F)F)c3)CCCC2)cc(O)c1=O [Compound 507],100 to 1000,< 20
CNC(=O)c1nn(CC2(n3ccc4ccc(Cl)cc43)CCCC2)cc(O)c1=O [Compound 860],< 100,< 20
O=C(NCc1ccc(F)c(Cl)c1)c1nn(CC2(c3cccc(Cl)c3)CCCC2)cc(O)c1=O [Compound 750],< 100,< 20
CNC(=O)c1nn(CC2(N3c4ccccc4C=Cc4ccccc43)CCCC2)cc(O)c1=O [Compound 884],< 100,< 20
CCOC(=O)c1nn(CC2(c3ccccc3)CCCC2)cc(O)c1=O [Compound 411],100 to 1000,< 20
O=C(Nc1ccc(Cl)cc1)c1nn(CC2(c3ccccc3)CCCC2)cc(O)c1=O [Compound 720],< 100,> 100
CNC(=O)c1nn(CC2(c3cccc4[nH]ncc34)CCCC2)cc(O)c1=O [Compound 871],< 100,> 100
O=C1NCC/C=C/Cc2ccc3ccn(c3c2)C2(CCCC2)Cn2cc(O)c(=O)c1n2 [Compound 841],100 to 1000,< 20
Cc1cn(C2(Cn3cc(O)c(=O)c(C(=O)NC(C)(C)C)n3)CCCC2)c2ncccc12 [Compound 792],< 100,< 20
O=C1NCCCCCOc2cccc(c2)C2(CCCC2)Cn2cc(O)c(=O)c1n2 [Compound 895],< 100,< 20
CNC(=O)c1nn(CC2(c3cccc(Br)c3)CCCC2)cc(O)c1=O [Compound 666],< 100,< 20
CNC(=O)c1nn(-c2ccccc2-c2ccccc2C(C)C)cc(O)c1=O [Compound 519],100 to 1000,20 to 100
CC(C)c1cccc(C2(Cn3cc(O)c(=O)c(C(N)=O)n3)CCCC2)c1 [Compound 730],< 100,< 20
CNC(=O)c1nn(CC2(c3cc4ccccc4cc3Cl)CCCC2)cc(O)c1=O [Compound 893],< 100,< 20
CNC(=O)c1nn(CC2(c3cccc(-c4ccoc4)c3)CC2)cc(O)c1=O [Compound 744],,> 100
CNC(=O)c1nn(CC2(c3cccc(-c4ccsc4)c3)CC2)cc(O)c1=O [Compound 724],,> 100
CNC(=O)c1nn(CC2(c3cccc(-c4ccnn4C)c3)CC2)cc(O)c1=O [Compound 713],,> 100
CNC(=O)c1nn(CC2(c3cccc(-c4ccncc4)c3)CCCC2)cc(O)c1=O [Compound 732],,> 100
CS(=O)(=O)c1ccc(NC(=O)c2nn(CC3(c4ccccc4)CCCC3)cc(O)c2=O)cc1 [Compound 721],,> 100
CNC(=O)c1nn(C(Cc2ccccc2)C(=O)NC)cc(O)c1=O (stereo not drawn) [Compound 667],,> 100
O=C(NCc1cccnn1)c1nn(CC2(c3ccccc3)CCCC2)cc(O)c1=O [Compound 699],,< 20

Structure (SMILES),IC50 (EN PA) [nM],EC50 [1] [µM]
O=C(NCc1ccccc1)c1nn(CC2(c3ccccc3)CCCC2)cc(O)c1=O [Compound 698],,< 20
CNC(=O)c1nn(CC2(c3ccc(-c4cncc(F)c4)cc3)CCCC2)cc(O)c1=O [Compound 763],,< 20
CNC(=O)c1nn(CC2(c3ccc(C4CCCCC4)cc3)CC2)cc(O)c1=O [Compound 729],,> 100
CNC(=O)c1nn(CC2(c3cccc(C(C)C)c3)CC2)cc(O)c1=O [Compound 702],,< 20
COc1ccc(NC(=O)c2nn(CC3(c4ccccc4)CCCC3)cc(O)c2=O)cc1 [Compound 697],,> 100
CNC(=O)c1nn(Cc2cc(C(F)(F)F)ccc2-c2ccc(C(C)(C)C)cc2)cc(O)c1=O [Compound 690],,> 100
CNC(=O)c1nn(CC2(c3cccc(-c4cnc5ccccc5c4)c3)CCCC2)cc(O)c1=O [Compound 735],,> 100
CNC(=O)c1nn(Cc2ccccc2-c2ccc(C(C)(C)C)cc2)cc(O)c1=O [Compound 642],,> 100
CNC(=O)c1nn(CC(Cc2ccccc2)c2cccc(C(F)(F)F)c2)cc(O)c1=O (stereo not drawn) [Compound 647],,< 20
CNC(=O)c1nn(CC2(c3ccc(C(C)C)cc3)CC2)cc(O)c1=O [Compound 688],,< 20
CNC(=O)c1nn(CC2(c3cccc(-c4cn[nH]c4)c3)CCCC2)cc(O)c1=O [Compound 714],,> 100
CNC(=O)c1nn(CC2(c3ccc(-c4cc[nH]n4)cc3)CCCC2)cc(O)c1=O [Compound 780],,< 20
CNC(=O)c1nn(-c2ccccc2-c2ccc3ccncc3c2)cc(O)c1=O [Compound 651],,20 to 100
O=C(Nc1ccc(Cl)c(C(F)(F)F)c1)c1nn(CC2(c3ccccc3)CCCC2)cc(O)c1=O [Compound 719],,> 100
CNC(=O)c1nn(CC2(c3ccc(-c4cn[nH]c4)cc3)CC2)cc(O)c1=O [Compound 728],,> 100
CNC(=O)c1nn(CC2(c3cccc(-c4ccco4)c3)CC2)cc(O)c1=O [Compound 739],,> 100
CC(C)(C)c1ccc(-c2ccccc2Cn2cc(O)c(=O)c(C(=O)O)n2)cc1 [Compound 657],,> 100
O=C(Nc1ccc(Oc2ccccc2)cc1)c1nn(CC2(c3ccccc3)CCCC2)cc(O)c1=O [Compound 696],,> 100
CNC(=O)c1nn(CC2(n3cc(-c4cncnc4)c4cccnc43)CCCC2)cc(O)c1=O [Compound 673],,> 100
CNC(=O)c1nn(CC2(c3ccc(-c4ccnn4C)cc3)CCCC2)cc(O)c1=O [Compound 779],,> 100
CNC(=O)c1nn(CC2(c3ccc(OC)cc3)CC2)cc(O)c1=O [Compound 675],,> 100
CNC(=O)c1nn(CC2(c3cccc(-c4cnc5ccccc5c4)c3)CC2)cc(O)c1=O [Compound 726],,< 20
CNC(=O)c1nn(CC2(c3cccc(C4CCCCC4)c3)CCCC2)cc(O)c1=O [Compound 711],,< 20
O=C(NCc1ccccn1)c1nn(CC2(c3ccccc3)CCCC2)cc(O)c1=O [Compound 691],,< 20
